Assay results: EP0792271B1, “FURAN DERIVATIVES FOR INHIBITING PNEUMOCYSTIS CARINII PNEUMONIA, GIARDIA LAMBLIA AND CRYPTOSPORIDIUM PARVUM” (priority 1994, dated 1996)
Where two headings read alike, the source gives them in different places.

Columns and labels:
[1] = biological target: topoisomerase II isolated from Giardia lamblia; experiment: Topoisomerase II inhibition (Giardia lamblia enzyme); assay type: biochemical; conditions: 50% inhibition of topoisomerase II isolated from Giardia lamblia; read-out: IC50 Topoisomerase Activity II G.l.
[2] = biological target: T1, topoisomerase II isolated from Drosophila melanogaster (Drosophila melanogaster, UniProt P15348); experiment: Topoisomerase II inhibition (Drosophila melanogaster enzyme); assay type: biochemical
T1 construct: topoisomerase II isolated from Drosophila melanogaster; from tissue
T1 sequence (P15348 1-1447): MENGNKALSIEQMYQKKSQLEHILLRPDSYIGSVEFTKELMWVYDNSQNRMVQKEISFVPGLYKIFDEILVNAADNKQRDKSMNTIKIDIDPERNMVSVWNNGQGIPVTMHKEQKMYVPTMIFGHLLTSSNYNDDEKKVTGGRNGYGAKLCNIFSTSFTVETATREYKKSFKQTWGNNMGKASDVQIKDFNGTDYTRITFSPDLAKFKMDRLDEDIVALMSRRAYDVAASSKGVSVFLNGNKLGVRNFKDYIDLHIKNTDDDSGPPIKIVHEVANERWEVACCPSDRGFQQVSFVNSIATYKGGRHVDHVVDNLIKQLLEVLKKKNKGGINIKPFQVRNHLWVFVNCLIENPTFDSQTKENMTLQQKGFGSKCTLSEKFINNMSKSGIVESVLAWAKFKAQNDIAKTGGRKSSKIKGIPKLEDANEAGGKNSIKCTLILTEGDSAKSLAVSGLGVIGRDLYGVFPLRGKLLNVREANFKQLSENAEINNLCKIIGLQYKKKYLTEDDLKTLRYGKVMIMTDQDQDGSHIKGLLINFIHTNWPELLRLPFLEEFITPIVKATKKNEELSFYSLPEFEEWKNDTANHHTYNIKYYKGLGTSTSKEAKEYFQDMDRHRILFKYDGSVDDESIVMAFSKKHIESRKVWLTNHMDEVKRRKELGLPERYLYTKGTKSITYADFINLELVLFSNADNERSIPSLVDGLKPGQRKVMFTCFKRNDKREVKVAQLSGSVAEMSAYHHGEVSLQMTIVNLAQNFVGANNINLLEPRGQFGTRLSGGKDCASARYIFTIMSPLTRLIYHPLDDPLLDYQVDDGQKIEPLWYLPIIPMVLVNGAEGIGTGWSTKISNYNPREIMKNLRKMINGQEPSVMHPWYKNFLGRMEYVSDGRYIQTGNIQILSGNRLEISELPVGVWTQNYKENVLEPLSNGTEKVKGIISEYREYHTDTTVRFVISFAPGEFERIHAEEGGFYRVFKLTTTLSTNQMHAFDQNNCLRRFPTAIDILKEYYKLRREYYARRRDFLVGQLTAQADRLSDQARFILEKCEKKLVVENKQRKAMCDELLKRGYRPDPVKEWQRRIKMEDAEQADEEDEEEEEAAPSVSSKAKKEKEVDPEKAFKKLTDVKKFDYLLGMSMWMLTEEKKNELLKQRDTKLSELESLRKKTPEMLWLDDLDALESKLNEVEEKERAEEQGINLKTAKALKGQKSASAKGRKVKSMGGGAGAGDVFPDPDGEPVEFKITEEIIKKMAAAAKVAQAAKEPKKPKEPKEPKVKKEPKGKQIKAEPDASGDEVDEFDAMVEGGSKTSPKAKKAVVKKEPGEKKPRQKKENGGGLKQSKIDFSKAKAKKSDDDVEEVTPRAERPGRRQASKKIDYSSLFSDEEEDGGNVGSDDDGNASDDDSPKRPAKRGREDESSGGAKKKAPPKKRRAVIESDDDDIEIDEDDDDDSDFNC

Giardia lamblia = experiment: Inhibition of growth of Giardia lamblia in in vitro culture; assay type: cell-based; conditions: read-out: IC50 Giardia lamblia
Pneumocystis carinii = experiment: In vivo activity against Pneumocystis carinii (lung cyst counts and toxicity); conditions: for Toxicity: toxicity scale, larger value = more severe, values greater than 2 indicate deaths of some animals
poly A poly T = experiment: DNA thermal melting (increase in Tm of poly A poly T); assay type: binding; conditions: MES buffer pH 6.0, 0.1 M NaCl, ratio of 0.3 moles of compound to nucleic acid bases
Method: (§1) Thermal melting curves for DNA and its complexes with compounds from Examples 4, 6, and 7-9 are determined as previously described in F.A. Tanious, et al., J.Biomol. Structure & Dynamics 11:1063 (1994) and W.D. Wilson, et al., Biochemistry 32:4098 (1993), by following the adsorption change at 260 nm as a function of temperature. Tm values were determined from first derivative plots. Compounds are compared by the increase in Tm (ΔTm=Tm of complex - Tm of the free nucleic acid) they produce in MES buffer (0.01M 2-(N-morpholino) ethanesulfonic acid, 0.001 M EDTA, 0.1 M NaCl adjusted to pH 6.0) at saturating amounts of compound (a ratio of 0.3 moles of compound to nucleic acid bases) unless otherwise indicated.

[3] = tested on: oligomer d(GCGCAATTGCGC)2; experiment: DNA thermal melting (increase in Tm of oligomer); assay type: binding; conditions: increase in thermal melting of the oligomer d(GCGCAATTGCGC)2; MES buffer pH 6.0
Method: as §1

[4] = biological target: topoisomerase I isolated from Pneumocystis carinii; experiment: Topoisomerase I inhibition (Pneumocystis carinii enzyme); assay type: biochemical; conditions: 50% inhibition of topoisomerase I isolated from Pneumocystis carinii
[5] = Pneumocystis carinii, iv, read-out: cyst/g lung (% of control)
[6] = 50% inhibition of topoisomerase II isolated from Drosophila melanogaster, read-out: IC50 Topoisomerase Activity II D.m.
[7] = 50% inhibition of growth of Giardia lamblia in in vitro culture

NCCNC(=O)c1ccc2[nH]c(-c3ccc(-c4ccc(-c5ccc(-c6nc7cc(C(=O)NCCN)ccc7[nH]6)cc5)o4)cc3)nc2c1 [Compound 11, 2,5-bis{4-[5-(N-2-aminoethylamido)benzimidazol-2-yl]phenyl}furan]
IC50 [1]: 5 µM | IC50 [2]: > 300 µM | IC50 (Giardia lamblia; Giardia duodenalis): 0.62 µM | Toxicity (Pneumocystis carinii; dosage 4.1 µM/kg/day intravenous): +4

c1cc(-c2ccc(-c3ccc(C4=NCCCCN4)cc3)o2)ccc1C1=NCCCCN1 [Compound 4, 2,5-bis[4-(4,5,6,7-tetrahydro-1H-1,3-diazepin-2-yl)phenyl]furan]
ΔTm DNA (poly A poly T): > 28 °C | ΔTm Oligomer [3]: 10.7 °C | IC50 [1]: 1.5 µM | IC50 [2]: 25 to 50 µM | IC50 (Giardia lamblia; Giardia duodenalis): 1.1 µM | response vs control in vivo at 0.18 µM (Pneumocystis carinii; [5]): 115% | response vs control in vivo at 2.3 µM (Pneumocystis carinii; [5]): 2.9% | Toxicity (Pneumocystis carinii; dosage 0.18 µM/kg/day intravenous): 0 | Toxicity (Pneumocystis carinii; dosage 2.3 µM/kg/day intravenous): +3

c1cc(-c2ccc(-c3ccc(C4=NC5CCCCC5N4)cc3)o2)ccc1C1=NC2CCCCC2N1 (stereo not shown) [Compound 5, 2,5-bis[4-(3a,4,5,6,7,7a-hexahydro-1H-benzimidazol-2-yl)phenyl]furan]
ΔTm DNA (poly A poly T): 24.5 °C | ΔTm Oligomer [3]: 5.6 °C | IC50 [1]: 3 to 6 µM | IC50 [2]: 50 µM | IC50 (Giardia lamblia; Giardia duodenalis): 1.7 µM | response vs control in vivo at 9.2 µM (Pneumocystis carinii; [5]): 80.5% | Toxicity (Pneumocystis carinii; dosage 9.2 µM/kg/day intravenous): +1

CCN1CCN=C1c1ccc(-c2ccc(-c3ccc(C4=NCCN4CC)cc3)o2)cc1 [Compound 7, 2,5-bis-{4-[2-(N-ethylimidazolinyl)]phenyl}furan]
ΔTm DNA (poly A poly T): 11.8 °C | IC50 [1]: 25 µM

N=C(N)c1ccc(OCCCCCOc2ccc(C(=N)N)cc2)cc1 [Pentamidine, reference compound]
response vs control in vivo at 22.1 µM (Pneumocystis carinii; [5]): 3.66% | Toxicity (Pneumocystis carinii; dosage 22.1 µM/kg/day intravenous): +2

N=C(NCCO)c1ccc(-c2ccc(-c3ccc(C(=N)NCCO)cc3)o2)cc1 [Compound 16, 2,5-bis-{4-[(N-2-hydroxyethyl)amidino]phenyl}furan]
ΔTm DNA (poly A poly T): 21.1 °C | IC50 [1]: 1.2 to 2.5 µM | IC50 [2]: 25 to 50 µM | IC50 (Giardia lamblia; Giardia duodenalis): 0.78 µM | Toxicity (Pneumocystis carinii; dosage 10.4 µM/kg/day intravenous): 0

Cc1c(-c2ccc(C(=N)N)cc2)oc(-c2ccc(C(=N)N)cc2)c1C [Compound 8, 2,5-bis(4-amidinophenyl)-3,4-dimethyl furan]
IC50 [1]: 0.75 µM | IC50 [2]: 2.4 µM | IC50 [4]: < 3.12 µM | IC50 (Giardia lamblia; Giardia duodenalis): 0.26 µM | Toxicity (Pneumocystis carinii; dosage 24.7 µM/kg/day intravenous): +1

N=C(NC1CC1)c1ccc(-c2ccc(-c3ccc(C(=N)NC4CC4)cc3)o2)cc1 [Compound 15, 2,5-bis-[4-N-(cyclopropylamidino)phenyl]furan]
ΔTm DNA (poly A poly T): > 28 °C | IC50 [1]: 1.25 µM | IC50 (Giardia lamblia; Giardia duodenalis): 0.63 µM

Cc1ccc(Oc2cc(-c3ccc(C4=NCCN4)cc3)oc2-c2ccc(C3=NCCN3)cc2)cc1 [Compound 9, 2,5-[bis{4-(2-imidazolinyl)}phenyl]3-p-tolyloxy furan]
ΔTm DNA (poly A poly T): 18.1 °C | IC50 [1]: 2 to 4 µM | IC50 [2]: 25 µM | IC50 [4]: 12.5 µM | IC50 (Giardia lamblia; Giardia duodenalis): > 100 µM | Toxicity (Pneumocystis carinii; dosage 9.3 µM/kg/day intravenous): +2

N=C(NCCCN)c1ccc(-c2ccc(-c3ccc(C(=N)NCCCN)cc3)o2)cc1 [Compound 19, 2,5-bis-{4-[N-(3-aminopropyl)amidino]phenyl}furan]
IC50 [1]: 0.625 µM | IC50 [2]: 25 µM | IC50 (Giardia lamblia; Giardia duodenalis): 0.059 µM

CN(C)CCNC(=N)c1ccc(-c2ccc(-c3ccc(C(=N)NCCN(C)C)cc3)o2)cc1 [Compound 17, 2,5-bis[4-N-(dimethylaminoethyl)amidino]phenyl furan]
IC50 [1]: 0.8 µM | IC50 [2]: 12.5 µM | IC50 (Giardia lamblia; Giardia duodenalis): 10.8 µM

CN(C)CCCNC(=N)c1ccc(-c2ccc(-c3ccc(C(=N)NCCCN(C)C)cc3)o2)cc1 [Compound 14, 2,5-bis{4-[3-(dimethylaminopropyl)amidino]phenyl}furan]
ΔTm DNA (poly A poly T): > 28 °C | IC50 [1]: 0.25 µM | IC50 [2]: > 6.2 µM | IC50 (Giardia lamblia; Giardia duodenalis): 8.98 µM | Toxicity (Pneumocystis carinii; dosage 3.9 µM/kg/day intravenous): +3

c1cc(-c2ccc(-c3ccc(C4=NCCN4)cc3)o2)ccc1C1=NCCN1 [Compound 2, 2,5-bis[4-(2-imidazolinyl)phenyl]furan]
IC50 [2]: 8 µM | IC50 (Giardia lamblia; Giardia duodenalis): 0.8 µM | response vs control in vivo at 23.3 µM (Pneumocystis carinii; [5]): 35.4% | Toxicity (Pneumocystis carinii; dosage 23.3 µM/kg/day intravenous): +2

2,5-bis[2-(imidazolinyl)phenyl]-3,4-bis(methoxymethyl)furan [Compound 18]
IC50 [1]: 0.8 to 1 µM | IC50 [2, 6]: 12.5 µM | IC50 (Giardia lamblia; [7]): 4.42 µM

OCCN1CCN=C1c1ccc(-c2ccc(-c3ccc(C4=NCCN4CCO)cc3)o2)cc1 [Compound 6, 2,5-bis{4[2-(N-2-hydroxyethyl)imidazolinyl]-phenyl}furan]
ΔTm DNA (poly A poly T): 12.2 °C | ΔTm Oligomer [3]: 1 °C | IC50 [1]: 20 µM | IC50 [2]: 200 µM | IC50 (Giardia lamblia; Giardia duodenalis): 5.3 µM | response vs control in vivo at 4.8 µM (Pneumocystis carinii; [5]): 107% | Toxicity (Pneumocystis carinii; dosage 4.8 µM/kg/day intravenous): +3

CN(C)NC(=O)c1ccc(-c2ccc(-c3ccc(C(=O)NN(C)C)cc3)o2)cc1 [Compound 12, 2,5-bis(4-N,N-dimethylcarboxhydrazidephenyl) furan]
IC50 [1]: 0.6 to 1.2 µM | IC50 [2, 6]: 30 to 60 µM | IC50 (Giardia lamblia; [7]): 0.35 µM | cyst/g lung (% of control) (Pneumocystis carinii; dosage 7.78 µM/kg/day intravenous, percentage of saline-treated controls): 20.7 % of control | Toxicity (Pneumocystis carinii; dosage 7.78 µM/kg/day intravenous): +3

Cc1cc(-c2ccc(C(=N)NC(C)C)cc2)oc1-c1ccc(C(=N)NC(C)C)cc1 [Compound 20, 2,5-bis[4-(N-isopropylamidino)phenyl]-3-methylfuran]
IC50 [1]: 1 to 2 µM | IC50 [2]: 3 µM | IC50 [4]: 50 to 100 µM | IC50 (Giardia lamblia; Giardia duodenalis): 4.4 µM

Cc1ccc(Oc2cc(-c3ccc(C4=NCCCN4)cc3)oc2-c2ccc(C3=NCCCN3)cc2)cc1 [Compound 10]
ΔTm DNA (poly A poly T): > 28 °C | IC50 [1]: 1 to 3 µM | IC50 [2]: 50 to 100 µM | IC50 (Giardia lamblia; Giardia duodenalis): 3.3 µM | Toxicity (Pneumocystis carinii; dosage 1.8 µM/kg/day intravenous): +3
